Measured values from patent publication US20240228493A1, “LRRK2 INHIBITORS AND USES THEREOF” (NEURON23, ICN., priority 2022, published 2024).

How the values were obtained:
[1] = molecular target: T1, wt human LRRK2, catalytic site (Homo sapiens, UniProt Q5S007); experiment: TR-FRET LanthaScreen Tb Kinase Activity Assay, LRRK2 inhibition; format: biochemical; conditions: 2 nM wt human LRRK2, 400 nM peptide, 38 μM ATP
T1 construct: wt human LRRK2, catalytic site, catalytic site (ThermoFisher/USA); purchased ThermoFisher
Outline: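 Fluorescein-ERM (LRRKtide) peptide (400 nM) phosphorylated by 2 nM wt human LRRK2 catalytic site with 38 μM ATP in 1× Kinase Buffer A, 120 min at room temperature after 15 min compound–kinase preincubation. EDTA plus Tb-anti-pLRRKtide antibody added, read after 60 min; inhibition from TR-FRET emission ratios.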

[2] = test system: Caco-2 cells; experiment: Caco-2 bidirectional permeability; format: in vitro ADME; conditions: for Caco-2 ER: Efflux Ratio=Papp(BA)/Papp(AB); for Caco-2 A2B (10^−6 cm/s): apical to basolateral; for Caco-2 A2B (10^−6 cm/s) / Caco-2 B2A (10^−6 cm/s): 2 hours, pH 7.4; for Caco-2 B2A (10^−6 cm/s): basolateral to apical
Outline: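 Caco-2 monolayers were grown 21–28 days on PET inserts and run in duplicate in HBSS with 10 mM HEPES, pH 7.4. Test compound was dosed bidirectionally at […] for 2 h at 37 °C; quantification was by LC-MS/MS. Papp and efflux ratio (B-A/A-B) were calculated, with lucifer yellow monolayer integrity checks.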

[3] = Human liver microsomal clearance (hLM Cl); format: in vitro ADME; conditions: values marked *: human liver microsomal Clearance
[4] = test system: human hepatocyte; experiment: Human hepatocyte stability, predicted hepatic clearance (h-Hept CL predict); format: in vitro ADME; conditions: human hepatocytes, 0.5×10^6 cells/mL, 1 μM, values without asterisk
Outline: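 Cryopreserved human hepatocytes, 0.5×10^6 viable cells/mL in William's E/GlutaMAX, incubated with compound at 1 μM final, duplicates. Sampling at 0-120 min, LC/MS/MS parent loss gives t1/2, converted to CLint and scaled to predicted hepatic clearance (well-stirred model, fub assumed 1).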

T1 sequence (Q5S007 1879-2138 limits assumed): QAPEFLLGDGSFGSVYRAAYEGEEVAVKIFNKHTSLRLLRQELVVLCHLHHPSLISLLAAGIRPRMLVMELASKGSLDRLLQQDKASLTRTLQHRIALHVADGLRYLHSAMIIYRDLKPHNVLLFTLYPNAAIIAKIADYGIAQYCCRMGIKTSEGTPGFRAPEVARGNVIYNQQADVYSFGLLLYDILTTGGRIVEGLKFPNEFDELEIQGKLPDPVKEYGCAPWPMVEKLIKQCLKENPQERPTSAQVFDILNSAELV

Compound | IC50 [1] [nM] | Caco-2 ER [2] | Caco-2 B2A (10^−6 cm/s) [2] | Caco-2 A2B (10^−6 cm/s) [2] | hLM Cl (mL/min/kg) [3] | hHep Cl (mL/min/kg) [4]
Cc1n[nH]c2c1N=C(c1c(F)cccc1F)Nc1c-2cc(N2CCN(CCCF)CC2)nc1C [Example 32, 8-(2,6-difluorophenyl)-13-[4-(3-fluoropropyl)piperazin-1-y1]-5,11-dimethyl-3,4,7,9,12-pentazatricyclo[8.4.0.02,6]tetradeca-1(10),2(6),4,7,11,13-hexaene] | < 1 | L (L (Likely)”: ER≥2.5) | H (H (High permeability)”: A2B (B2A)>5) | M (M (Moderate permeability)”: 1≤A2B (B2A)≤5) | L* (L (Low Cl)”: Hep Cl (mL/min/kg)<6.3) | 
Cc1nc(N2CC3(COC3)C2)cc2c1NC(c1c(F)cccc1F)=Nc1cn[nH]c1-2 [Example 43, 6-(5-(2,6-difluorophenyl)-7-methyl-1,6-dihydropyrazolo[4,3-d]pyrido[4,3-f][1,3]diazepin-9-y1)-2-oxa-6-azaspiro[3.3]heptane] | 1 to 100 | L (L (Likely)”: ER≥2.5) | H (H (High permeability)”: A2B (B2A)>5) | M (M (Moderate permeability)”: 1≤A2B (B2A)≤5) | L* (L (Low Cl)”: Hep Cl (mL/min/kg)<6.3) | 
Cc1n[nH]c2c1N=C(c1c(F)cccc1F)Nc1cnc(N3CCC4(CC3)COC4)cc1-2 [Example 42, 7-(5-(2,6-difluorophenyl)-3-methyl-1,6-dihydropyrazolo[4,3-d]pyrido[4,3-f][1,3]diazepin-9-yl)-2-oxa-7-azaspiro[3.5]nonane] | 1 to 100 | L (L (Likely)”: ER≥2.5) | H (H (High permeability)”: A2B (B2A)>5) | M (M (Moderate permeability)”: 1≤A2B (B2A)≤5) | L* (L (Low Cl)”: Hep Cl (mL/min/kg)<6.3) | 
Cc1n[nH]c2c1N=C(c1c(F)cccc1F)Nc1c-2cc(N2CCO[C@H]([C@@H](C)O)C2)nc1C [Example 45, (R)-1-((S)-4-(5-(2,6-difluorophenyl)-3,7-dimethyl-1,6-dihydropyrazolo[4,3-d]pyrido[4,3-f][1,3]diazepin-9-yl)morpholin-2-yl)ethan-1-ol] | 1 to 100 | L (L (Likely)”: ER≥2.5) | H (H (High permeability)”: A2B (B2A)>5) | L (L (Low permeability)”: A2B (B2A)<1) | L* (L (Low Cl)”: Hep Cl (mL/min/kg)<6.3) | 
Cc1n[nH]c2c1N=C(c1c(F)cccc1F)Nc1c-2cc(N2CCOC3(COC3)C2)nc1C [Example 38, 8-(5-(2,6-difluorophenyl)-3,7-dimethyl-1,6-dihydropyrazolo[4,3-d]pyrido[4,3-f][1,3]diazepin-9-yl)-2,5-dioxa-8-azaspiro[3.5]nonane] | < 1 | L (L (Likely)”: ER≥2.5) | H (H (High permeability)”: A2B (B2A)>5) | M (M (Moderate permeability)”: 1≤A2B (B2A)≤5) | L* (L (Low Cl)”: Hep Cl (mL/min/kg)<6.3) | 
Cc1n[nH]c2c1N=C(c1c(F)cccc1F)Nc1cnc(N3CCC[C@@](C)(C#N)C3)cc1-2 (single isomer, unassigned) [Example 12] | < 1 | L (L (Likely)”: ER≥2.5) | H (H (High permeability)”: A2B (B2A)>5) | M (M (Moderate permeability)”: 1≤A2B (B2A)≤5) | L* (L (Low Cl)”: Hep Cl (mL/min/kg)<6.3) | 
OCc1cc(F)c(C2=Nc3c(Cl)n[nH]c3-c3cc(N4CCOCC4)ncc3N2)c(F)c1 [Example 22, (4-(3-chloro-9-morpholino-1,6-dihydropyrazolo[4,3-d]pyrido[4,3-f][1,3]diazepin-5-y1)-3,5-difluorophenyl)methanol] | < 1 | L (L (Likely)”: ER≥2.5) | H (H (High permeability)”: A2B (B2A)>5) | L (L (Low permeability)”: A2B (B2A)<1) |  | I (I (Intermediate Cl)”: 6.3≤Hep Cl (mL/min/kg)≤14.7)

Continued, in another order:

IC50 [1] [nM] | Caco-2 ER [2] | Caco-2 B2A (10^−6 cm/s) [2] | Compound | Caco-2 A2B (10^−6 cm/s) [2] | hLM Cl (mL/min/kg) [3] | hHep Cl (mL/min/kg) [4]
< 1 | L (L (Likely)”: ER≥2.5) | H (H (High permeability)”: A2B (B2A)>5) | Cc1n[nH]c2c1N=C(c1c(F)cccc1F)Nc1c-2cc(N2CCS(=O)(=O)CC2)nc1C [Example 46, 4-(5-(2,6-difluorophenyl)-3,7-dimethyl-1,6-dihydropyrazolo[4,3-d]pyrido[4,3-f][1,3]diazepin-9-yl)thiomorpholine 1,1-dioxide] | L (L (Low permeability)”: A2B (B2A)<1) | L* (L (Low Cl)”: Hep Cl (mL/min/kg)<6.3) | 
< 1 | L (L (Likely)”: ER≥2.5) | H (H (High permeability)”: A2B (B2A)>5) | Fc1cccc(F)c1C1=Nc2cn[nH]c2-c2cc(N3CC[C@@H](C(F)F)C3)ncc2N1 (single isomer, unassigned) [Example 34] | M (M (Moderate permeability)”: 1≤A2B (B2A)≤5) | I* (I (Intermediate Cl)”: 6.3≤Hep Cl (mL/min/kg)≤14.7) | 
1 to 100 | L (L (Likely)”: ER≥2.5) | H (H (High permeability)”: A2B (B2A)>5) | Cc1n[nH]c2c1N=C(c1c(F)cccc1F)Nc1cnc(N3CCC(C#N)CC3)cc1-2 [Example 48, 1-(5-(2,6-difluorophenyl)-3-methyl-1,6-dihydropyrazolo[4,3-d]pyrido[4,3-f][1,3]diazepin-9-yl)piperidine-4-carbonitrile] | M (M (Moderate permeability)”: 1≤A2B (B2A)≤5) | I* (I (Intermediate Cl)”: 6.3≤Hep Cl (mL/min/kg)≤14.7) | 
1 to 100 | L (L (Likely)”: ER≥2.5) | H (H (High permeability)”: A2B (B2A)>5) | Cc1n[nH]c2c1N=C(c1c(F)cccc1F)Nc1cnc(N3CCC(C)(C#N)CC3)cc1-2 [Example 17, 1-[8-(2,6-difluorophenyl)-5-methyl-3,4,7,9,12-pentazatricyclo[8.4.0.02,6]tetradeca-1(10),2(6),4,7,11,13-hexaen-13-y1]-4-methyl-piperidine-4-carbonitrile] | H (H (High permeability)”: A2B (B2A)>5) | I* (I (Intermediate Cl)”: 6.3≤Hep Cl (mL/min/kg)≤14.7) | 
